Here are results for twelve compounds from PubChem BioAssay (NCI).

Common to all, as to test: growth of human tumour cells (NCI), 48 h
The test system of assay [1] is SF-539 CNS.
The test system of assay [2] is RPMI-8226 leukemia.
Assay [3] concerns SW-620 colon.
Assay [4] concerns OVCAR-4 ovarian.
Assay [5] concerns A498 renal.
In assay [6] the test system is HS 578T breast.
Assay [7] deals with CAKI-1 renal.
Assay [8] relates to SK-MEL-2 melanoma.
The subject of assay [9] is HL-60(TB) leukemia.
The subject of assay [10] is LOX IMVI melanoma.
For assay [11], the system named is DU-145 prostate.

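In this assay, cells in 96-well plates receive the compound at five concentrations for 48 hours. Endpoints are linearly interpolated between the surrounding concentrations. TGI marks complete inhibition of growth.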

Consider `O=C(C[n+]1ccccc1)N/N=C(\Cc1nc2ccc([N+](=O)[O-])cc2[nH]c1=O)C(=O)Nc1cc(Cl)c(Cl)cc1Cl`, for which the TGI in assay [1], in [2], in assay [3], in [4], in assay [5] and in assay [6] was above 100 µM throughout. For the same compound, the TGI in [7], in [8], in assay [9], in assay [10] and in assay [11] was above 100 µM in each case.

For `Cn1c(-c2cccs2)cc(-c2cccs2)c1-c1ccco1`, the TGI in assay [1] was above 100 µM; in assay [2] it was above 100 µM; in [3], above 100 µM; in [4], 5.07 µM; in [5], above 79.2 µM; in assay [6], above 91.7 µM. The TGI was above 38.1 µM in assay [7]; above 100 µM in assay [8]; above 75.7 µM in assay [9]; 62.9 µM in [10]; above 100 µM in assay [11].

For `COc1ccc2c(c1)/C(=C\c1c(C)nc3sc(C)cn13)C(=O)N2`, the TGI is 9.58 µM in [1]; above 64.8 µM in [2]; above 100 µM in assay [3]; above 100 µM in [4]; 5.42 µM in assay [5]; 10.3 µM in assay [6]. Further, the TGI was above 100 µM in [7]; above 28.3 µM in assay [8]; 3.63 µM in assay [9]; 61.2 µM in assay [10]; above 46.1 µM in [11].

With `Cc1cc(S(=O)(=O)/N=C(\[N-]S(=O)(=O)c2ccc(Cl)cc2)[n+]2ccc(N(C)C)cc2)c(S)cc1Cl`, the TGI in [1] is above 100 µM; in [2] it was above 100 µM; in assay [3], above 100 µM; in assay [4] it was above 100 µM; in [5], 99.2 µM; in [6], above 100 µM. The TGI in assay [7], in assay [8], in assay [9], in assay [10] and in assay [11] was above 100 µM each time.

Regarding `CC(=O)NNc1nc(C)c(C(/C=C/c2ccc([N+](=O)[O-])cc2)=N/NC(N)=S)s1`, the TGI in [1], in assay [2], in assay [3], in assay [4], in [5] and in assay [6] was above 100 µM throughout. Besides, the TGI in [7], in [8], in [9], in [10] and in assay [11] was above 100 µM throughout.

For the compound `Cc1cc(-c2nc3ccccc3s2)ccc1N`, the TGI in [1] was above 91.6 µM; in assay [2], above 100 µM; in [3], above 100 µM; in assay [4], above 84.1 µM; in assay [5], above 94.5 µM; in [6] it was above 100 µM. Further, the TGI in assay [7] is above 82.4 µM; in assay [8], above 84 µM; in assay [9] it was above 90.3 µM; in assay [10] it was above 78.5 µM; in [11] it was above 100 µM.

With `CCOP(=O)(C/C=C/Cn1nc(Br)c(=O)[nH]c1=O)OCC`, the TGI in [1], in assay [2], in assay [3], in assay [4], in assay [5] and in assay [6] was above 100 µM throughout. The TGI in assay [7], in assay [8], in assay [9], in assay [10] and in [11] was above 100 µM each time.

On to `CC(C)(C)c1cc2c(O)c(c1)Cc1cc(C(C#N)(Cc3ccc4ccccc4c3)Cc3ccc4ccccc4c3)cc(c1O)Cc1cc(C(C)(C)C)cc(c1O)Cc1cc(C(C#N)(Cc3ccc4ccccc4c3)Cc3ccc4ccccc4c3)cc(c1O)C2`, for which the TGI in [1], in assay [2], in assay [3], in assay [4], in assay [5] and in assay [6] was above 100 µM in each case. The TGI in [7], in assay [8], in assay [9], in assay [10] and in [11] was above 100 µM in each case.

Take `CC(C)OP(=O)(OC(C)C)/C(C#N)=C/c1ccco1`: the TGI in assay [1], in assay [2], in [3], in assay [4], in [5] and in [6] was above 100 µM in each case. Besides, the TGI in [7], in [8], in [9], in [10] and in assay [11] was above 100 µM in each case.

Take `COc1cc(C(=O)O[C@@H]2[C@@H](OC(=O)c3cc(OC)c(OC)c(OC)c3)[C@@H](OC)O[C@@H]3CO[C@@H](c4ccccc4)O[C@@H]23)cc(OC)c1OC`: the TGI in [1], in [2], in [3], in [4], in assay [5] and in assay [6] was above 100 µM each time. In addition, the TGI in [7], in assay [8], in assay [9], in assay [10] and in [11] was above 100 µM each time.

With `CC=CCOc1cc(NC(=S)OC(C)C)ccc1Cl` (mixture of isomers), the TGI is 36.1 µM in assay [1]; above 100 µM in assay [2]; 35.3 µM in assay [3]; 32.4 µM in assay [4]; 30.7 µM in assay [5]; 43.9 µM in [6]. For the same compound, the TGI in assay [7] was 22.8 µM; in assay [8], 28.6 µM; in assay [9], 55.7 µM; in assay [10], 35.8 µM; in assay [11] it was 76.9 µM.

Consider `Oc1ccccc1C=Nc1ccc(-c2nc3ccccc3[nH]2)cc1`, for which the TGI in [1], in [2], in [3], in assay [4], in assay [5] and in assay [6] was above 100 µM throughout. The TGI in assay [7], in [8], in assay [9], in [10] and in assay [11] was above 100 µM throughout.
